Several values for one entry are separate records, joined by “and”; a condition that tells them apart may be missing. Equal entries are not always repeated. {32P} = terminal 32P phosphate radiolabel

Experimental findings from US6368803B1, “Detection of nucleic acids by target-catalyzed formation” (Dade Behring Inc., priority 1994, dated 2002) are described below.

Data set [1] deals with single stranded target DNA (M13mp19). Briefly: Target-catalyzed isothermal 5'-nuclease cleavage of 5'-32P-labeled probe; fold amplification by gel electrophoresis and liquid scintillation. The data set is classed as biochemical. The procedure: Probe 2, the unlabeled probe, was designed to anneal to the target DNA 3' to, and contiguous with, the site at which the labeled probe annealed to the target DNA. […] However, good results were obtained in the absence of DATP. The reaction mixture was incubated at 72° C. and accumulation of product, a mononucleotide, namely, 5'^32P-C-OH, was determined by visualization using autoradiography following polyacrylamide gel electrophoresis. The fold of amplification was determined by liquid scintillation spectrometry of excised reaction products. A 10^5 fold amplification was observed. […] The product of this reaction was a dinucleotide, namely, 5'^32P-TC-OH (SEQ ID NO:4), that represented a 10^5-fold amplification. The above reaction protocol was repeated with different temperatures and different concentrations of reagents. All of the reactions, including those mentioned above, were carried out for a period of 3 hours. The following table summarizes the reagents and reaction parameters and the results obtained during the optimization procedure. The reaction protocol described in Example 1 was repeated using the following probes in place of Probe 1 or Probe 3: […]

Data set [2] deals with Probe 5 hybridized to target DNA (M13mp19). Put plainly: Cleavage of Probe 5 on target DNA using six different DNA polymerases with 5'-nuclease activity. The data set is classed as biochemical. As to conditions: 2×10^9 target molecules; Probe 5 1 micromolar; three hours; 72 °C; 20-nucleotide fragment. How it is done:
Probe 2, the unlabeled probe, was designed to anneal to the target DNA 3' to, and contiguous with, the site at which the labeled probe annealed to the target DNA. […] However, good results were obtained in the absence of DATP. The reaction protocol described in Example 1 was repeated using 2×10^9 target molecules and Probe 5 (see Example 2) at a concentration of 1 micromolar in place of Probe 1. The reactions were conducted for three hours at a temperature of 72° C. using one of six different DNA polymerases, namely, AmpliTaq DNA polymerase, […] polymerase (Epicentre), Tfl(TM) DNA polymerase (Epicentre), Ultra Therm(TM) DNA polymerase (Bio/Can Scientific), […] polymerase (Amresco) and Panozyme(TM) DNA polymerase. The product of the reaction was a 20-nucleotide fragment (see Example 2). The following is a summary of the results obtained.

Where [3] appears, read: probe 1 μM, target number 10^9, Taq 7.5 units, 72 °C, increase MgCl2 (7.5 mM), 3 hours.
[4] abbreviates: probe 10 uM, 2×10^8 target molecules, Probe 2 1 uM, 7.5 units AmpliTaq, 72 °C, 7.5 mM MgCl2, 100 uM dATP, 3 hours.
Setting [5] is: probe 10 μM, target number 10^8, Taq 7.5 units, 74 °C, increase MgCl2 (7.5 mM), 3 hours.
Setting [6] is: probe 10 μM, target number 10^9, Taq 7.5 units, 74 °C, increase MgCl2 (7.5 mM), 3 hours.

For “5′GAT-TAG-GAT-TAG-GAT-TAG-TCG-TGG-GAA-CAA-ACG-GCG-GAT3′ (GATTAGGATTAGGATTAGTCGTGGGAACAAACGGCGGAT; DNA, 5' {32P}, backbone and methylation of C not given here) [Probe 5, 39 nucleotides with 19 nucleotides at its 5′-end not complementary to the target DNA]”, the Fold amplification in data set [1] (Example 1 protocol, probe concentration not given, product intact 20 nucleotide fragment) was 1.5×10^4 fold.
As to “AmpliTaq: Taq DNA polymerase from Perkin-Elmer Corporation with 5′-nuclease activity”, in data set [2], the “Fragment (picomoles)” value was 32 picomoles.
Take “5′TCG-TGG-GAA-CAA-ACG-GCG-GAT3′ (TCGTGGGAACAAACGGCGGAT; DNA, 5' {32P}, backbone and methylation of C not given here) [Probe 3, 21 nucleotides withone base at the 5′-end not complementary to the target DNA]”: the Fold amplification in data set [1] (probe 1 μM, target number 10^8, Taq 7.5 units, 72 °C, increase MgCl2 (7.5 mM), 3 hours) is 2.6 × 10^4 fold; in data set [1] (setting [3]) it was 9.9 × 10^3 fold; in data set [1] (setting [4]), 10^5 fold; in data set [1] (setting [5]) it was 1.0 × 10^5 fold; in data set [1] (setting [6]), 4.6 × 10^4 fold.
As to “5′ CGT-GGG-AAC-AAA-CGG-CGG-AT3′ (CGTGGGAACAAACGGCGGAT; DNA, 5' {32P}, backbone and methylation of C not given here) [Probe 1, 20-base oligonucleotide fully complementary to the target DNA with label on the 5′-nucleotide]”, the Fold amplification in data set [1] (probe 1 μM, target number 10^8, Taq 7.5 units, 72 °C, add dATP (100 μM), 3 hours) is 1.0 × 10^4 fold; in data set [1] (probe 1 μM, target number 10^9, Taq 2.5 units, 72 °C, buffer as described, 1.5 mM MgCl2, 3 hours), 1.8 × 10^3 fold; in data set [1] (probe 1 μM, target number 10^9, Taq 7.5 units, 72 °C, add dATP (100 μM), 3 hours) it was 1.4 × 10^3 fold; in data set [1] (probe 1 μM, target number 10^9, Taq 7.5 units, 72 °C, buffer as described, 1.5 mM MgCl2, 3 hours), 2.0 × 10^3 fold; in data set [1] (setting [3]), 9.7 × 10^3 fold and 9.3 × 10^3 fold; in data set [1] (probe 1 μM, target number 10^10, Taq 2.5 units, 72 °C, buffer as described, 1.5 mM MgCl2, 3 hours), 8.8 × 10^2 fold. The Fold amplification is 10^5 fold in data set [1] (setting [4]); 3.6 × 10^4 fold in data set [1] (probe 10 μM, target number 10^8, Taq 7.5 units, 72 °C, add dATP (100 μM), 3 hours); 1.1 × 10^5 fold in data set [1] (setting [5]); 1.4 × 10^4 fold in data set [1] (probe 10 μM, target number 10^9, Taq 7.5 units, 72 °C, add dATP (100 μM), 3 hours); 3.7 × 10^4 fold in data set [1] (setting [6]).
Take “5′TTA-TTT-CGT-GGG-AAC-AAA-CGG-CGG-AT3′ [Probe 4]”: the Fold amplification in data set [1] (Example 1 protocol, probe 1 micromolar, product intact seven nucleotide fragment) was 1.5×10^4 fold.
As to `Nc1ncnc2c1ncn2[C@H]1C[C@H](O)[C@@H](COP(=O)(O)OP(=O)(O)OP(=O)(O)O)O1` [dATP, reference compound], the “effect on rate of cleavage by the polymerase” value in data set [1] (100 uM in buffer, AmpliTaq DNA polymerase) is “enhance the rate of cleavage”.
